Data taken from patent US20040014215A1, “Synchronised arabidopsis cell suspensions and uses thereof” (priority 2000, published 2004).

System: Arabidopsis cell suspension MM2d
Assay: Aphidicolin block/release of MM2d: proportion of G1, S and G2 cells by flow cytometry
Assay type: cell-based, Arabidopsis thaliana
Experimental: The level of synchronicity of the Arabidopsis cell suspension culture MM1 was analysed by flow cytometry. The cell pellet from 5 ml of cell suspension culture was frozen in liquid nitrogen. To analyse the DNA content, the High Resolution Kit for Plant ploidy analysis (Type P) (Partec, Cat. No. 06-5-4004) was used, containing solution A (to release cell nuclei) and solution B (to stain DNA with DAPI). A sample of the frozen cell pellet was transferred into a small petri-dish (5 cm diameter), 150 μl of solution A was added, and the sample was carefully chopped with vertical motion of a sharp razor blade. An additional 150 μl of solution A was added, the cell suspension pipetted up and down for several time before leaving for approximately 2 min at RT. The released cell nuclei were filtered through a 50 μm nylon mesh (Partec, CellTrics 50 μm, Cat. No. 06-4-2317) and 1 ml of solution B was added to the filtrate. On average 8200 particles were counted with a flow cytometer (PASIII; Partec GmbH, Germany), using HBO lamp excitation (Partec, mercury lamp HBO 100 long life, 100W) and detection of emission using a blue filter. Cell cycle phases were analysed using Multicycle for Windows (Phoenix Flow Systems, San Diego, Calif.). Flow cytometry results are not corrected for the mitotic cells (which are not measured by this method).
This experiment was carried out as described for Example 1, except that cell line MM2d was used, and the culture conditions throughout the experiment were as described for MM2d in Example 1.
Synchronisation was performed as described in Example 2A, with the exception that before adding aphidicolin, 20 ml of the weekly subcultured cell suspension was transferred into 100 ml fresh MSS-medium in each of 2 separate flasks and cultivated under conditions as described in Example 1 for MM2d. […] Samples were taken at the same time frame for flow cytometry to follow cell cycle transition.
Samples were analysed by flow cytometry to determine the percentage of cells being in G1-, S- and G2M phase. The mitotic index (MI) and labelling index (LI) were independently determined (as described in Example 2A). Results are shown below in table II and in FIG. 1.
Table II. Aphidicolin block/release of Arabidopsis cell suspension MM2d. Data are shown from analysis of samples obtained in the experiment described in Example 2B.

C[C@@]1(CO)[C@H](O)CC[C@@]2(C)[C@H]1CC[C@H]1C[C@@H]3C[C@@]12CC[C@]3(O)CO [aphidicolin]
G1 (%) MM2d (0 h after aphidicolin removal): 46.9%
G2 (%) MM2d (0 h after aphidicolin removal): 16.4%
S (%) MM2d (0 h after aphidicolin removal): 36.6%
G1 (%) MM2d (1 h after aphidicolin removal): 16.6%
G2 (%) MM2d (1 h after aphidicolin removal): 4.9%
S (%) MM2d (1 h after aphidicolin removal): 78.6%
G1 (%) MM2d (2 h after aphidicolin removal): 21.5%
G2 (%) MM2d (2 h after aphidicolin removal): 5.3%
S (%) MM2d (2 h after aphidicolin removal): 73.2%
G1 (%) MM2d (3 h after aphidicolin removal): 24.8%
G2 (%) MM2d (3 h after aphidicolin removal): 11.2%
S (%) MM2d (3 h after aphidicolin removal): 64.1%
G1 (%) MM2d (4 h after aphidicolin removal): 18.8%
G2 (%) MM2d (4 h after aphidicolin removal): 48.2%
S (%) MM2d (4 h after aphidicolin removal): 33%
G1 (%) MM2d (5 h after aphidicolin removal): 15.1%
G2 (%) MM2d (5 h after aphidicolin removal): 74.8%
S (%) MM2d (5 h after aphidicolin removal): 10.1%
G1 (%) MM2d (6 h after aphidicolin removal): 12.5%
G2 (%) MM2d (6 h after aphidicolin removal): 80.6%
S (%) MM2d (6 h after aphidicolin removal): 6.9%
G1 (%) MM2d (7 h after aphidicolin removal): 10.5%
G2 (%) MM2d (7 h after aphidicolin removal): 89.5%
S (%) MM2d (7 h after aphidicolin removal): 0%
G1 (%) MM2d (8 h after aphidicolin removal): 9%
G2 (%) MM2d (8 h after aphidicolin removal): 91%
S (%) MM2d (8 h after aphidicolin removal): 0%
G1 (%) MM2d (9 h after aphidicolin removal): 7.6%
G2 (%) MM2d (9 h after aphidicolin removal): 92.4%
S (%) MM2d (9 h after aphidicolin removal): 0%
G1 (%) MM2d (10 h after aphidicolin removal): 10.1%
G2 (%) MM2d (10 h after aphidicolin removal): 89.6%
S (%) MM2d (10 h after aphidicolin removal): 0%
G1 (%) MM2d (11 h after aphidicolin removal): 17.2%
G2 (%) MM2d (11 h after aphidicolin removal): 82.8%
S (%) MM2d (11 h after aphidicolin removal): 0%
G1 (%) MM2d (12 h after aphidicolin removal): 27.7%
G2 (%) MM2d (12 h after aphidicolin removal): 72.3%
S (%) MM2d (12 h after aphidicolin removal): 0%
G1 (%) MM2d (13 h after aphidicolin removal): 32.1%
G2 (%) MM2d (13 h after aphidicolin removal): 67.9%
S (%) MM2d (13 h after aphidicolin removal): 0%
G1 (%) MM2d (14 h after aphidicolin removal): 34.3%
G2 (%) MM2d (14 h after aphidicolin removal): 65.7%
S (%) MM2d (14 h after aphidicolin removal): 0%
G1 (%) MM2d (15 h after aphidicolin removal): 40.7%
G2 (%) MM2d (15 h after aphidicolin removal): 59.3%
S (%) MM2d (15 h after aphidicolin removal): 0%
G1 (%) MM2d (16 h after aphidicolin removal): 34.9%
G2 (%) MM2d (16 h after aphidicolin removal): 59.4%
S (%) MM2d (16 h after aphidicolin removal): 5.8%
G1 (%) MM2d (17 h after aphidicolin removal): 40.8%
G2 (%) MM2d (17 h after aphidicolin removal): 52%
S (%) MM2d (17 h after aphidicolin removal): 7.3%
G1 (%) MM2d (18 h after aphidicolin removal): 40.7%
G2 (%) MM2d (18 h after aphidicolin removal): 47.9%
S (%) MM2d (18 h after aphidicolin removal): 11.3%
G1 (%) MM2d (19 h after aphidicolin removal): 38.4%
G2 (%) MM2d (19 h after aphidicolin removal): 47.3%
S (%) MM2d (19 h after aphidicolin removal): 14.4%
G1 (%) MM2d (20 h after aphidicolin removal): 37.7%
G2 (%) MM2d (20 h after aphidicolin removal): 45.5%
S (%) MM2d (20 h after aphidicolin removal): 16.9%
maximum G2 synchrony (MM2d, flow cytometry): 90%
maximum S phase synchrony (MM2d, flow cytometry): 79%
